Laboratory results: patent US20130178437A1, “CONJUGATES COMPRISING HYDROXYALKYL STARCH AND A CYTOTOXIC AGENT AND PROCESS FOR THEIR PREPARATION” (priority 2010, published 2013)
Marks after values point to notes of the source that are not given here.

What was measured:
[1] = system: human mamma carcinoma MT3-ADR; assay: Tumor growth inhibition, s.c. MT3-ADR xenografts in nude mice (doxorubicin conjugates); type: in vivo, NMRI:nu/nu mice; details: Table 14; 8 mg/kg/inj. i.v., treatment d 10
Source text: (§1) For all in vivo studies in which doxorubicin conjugates wer administred, adult female NMRI:nu/nu mice (TACONIC Europe, Lille Skensved, Denmark) were used throughout the study.
(§2) The human breast cancer carcinoma MT-3, human ovarian cancer carcinoma ovcar-3 and human mamma carcinoma MT3-ADR were used as s.c. xenotransplantation model in immunodeficient female […] mice (see table 17).
(§3) The cells were obtained from ATCC and are cryo-preserved within the EPO tumor bank. They were thawed, expanded in vitro and transplanted as cell suspension subcutaneously (s.c.) in female NMRI:nu/nu mice. The tumor lines MT-3, ovcar-3 and MT3-ADR are used for testing new anticancer drugs or novel therapeutic strategies. It was therefore selected for this study. MT-3, ovcar-3 and MT3-ADR xenografts are growing relatively fast and uniform.
(§4) For experimental use 5*10^6 to 10^7 tumor cells/mouse from the in vitro passage were transplanted s.c. into the flank of each of 10 mice/group at day 0.
(§5) At palpable tumor size (30-100 mm^3) treatment started. The application volume was 0.2 ml/20 g mouse body weight. The test compounds, the vehicle controls and the reference compounds were all given intravenously (i.v.).
(§6) Tumor growth inhibition was used as therapeutic parameter. Additionally, body weight change was determined as signs for toxicity (particularly, potential hematological or gastrointestinal side effects).
(§7) Tumor diameters were measured twice weekly with a caliper. Tumor volumes were calculated according to V=(length×(width)^2)/2. For calculation of the relative tumor volume (RTV) the tumor volumes at each measurement day were related to the day of first treatment. At each measurement day the median and mean tumor volumes per group and also the treated to control (T/C) values in percent were calculated (Table 10 to 15).
(§8) Descriptive statistics were performed on the data of body weight and tumor volume. […] Statistical evaluation was performed with the U-test of Mann and Whitney with a significance level of p≦0.05, using the Windows program […] 6. […]

[2] = system: human ovarian cancer carcinoma ovcar-3; assay: Tumor growth inhibition, s.c. ovcar-3 xenografts in nude mice (doxorubicin conjugates); type: in vivo, NMRI:nu/nu mice; details: Table 13; 8 mg/kg/inj. i.v., treatment d 5
Source text: as §1, §2, §3, §4, §5, §6, §7, §8

[3] = Body weight change and toxic deaths in xenograft-bearing mice (doxorubicin studies); type: in vivo, NMRI:nu/nu mice; details: for Toxic deaths: 7 mice
Experimental: as §1, §5, §6
Individual body weights of mice were determined twice weekly and mean body weight per group was related to the initial value in percent (body weight change, BWC).
On the day of necropsy the mice were sacrificed by cervical dislocation and inspected for gross organ changes.
(§9) Tables 10 to 15 summarize the results for the tested, Doxorubicin conjugates and the reference compound Doxorubicin.
The loss of body weight is known to be an indicator of gastro-intestinal and hepatotoxicity of the tested compound.

[4] = system: human breast cancer carcinoma MT-3; assay: Tumor growth inhibition, s.c. MT-3 xenografts in nude mice (doxorubicin conjugates); type: in vivo, NMRI:nu/nu mice; details: 8 mg/kg/inj. i.v.
Source text: as §1, §2, §3, §4, §5, §6, §7
Descriptive statistics were performed on the data of body weight and tumor volume. […] Statistical evaluation was performed with the U-test of Mann and Whitney with a significance level of p≦0.05, using the Windows program […] 6.
The tested Doxorubicin conjugates CDx1 to CDx15 were obtained as described herein above and were kept in a freeze-dried form at −20° C. until the use. Before administration, the conjugates were dissolved in saline solution by vortexing in combination with centrifugation until a clear solution of the necessary concentration of the drug was obtained. The obtained solutions were prepared and injected under sterile conditions.
The reference compound was Doxorubicin (which is, for example, available as Doxorubicin NC® from Neocorp). Doxorubicin was stored in aliquots at 4° C. in the dark and diluted in saline before administration.
as §9

[5] = system: human breast cancer carcinoma MT-3; assay: Tumor growth inhibition, s.c. MT-3 xenografts in nude mice (epirubicin and idarubicin conjugates); type: in vivo, NMRI-nu/nu nude mice; details: MT-3 subtype obtained from a different laboratory; unmodified drug
Experimental: All experiments were performed using 5-6 weeks old female NMRI^−nu/nu nude mice (approximate weight: 30 g after acclimatization). Mice were maintained in individual ventilated cages (IVC, max. 3 mice/cage) at constant temperature and humidity. Animal weights were taken every other day (Monday, Wednesday and Friday). Animal behavior was monitored daily. At study end, animals were sacrificed and in case the tumor volume was measured a necropsy was performed.
Monolayers of MT-3 cells were grown in DMEM 4500 with phenol red supplement with 10% FCS, 1% L-Glutamine, 100 units penicillin/ml, and 100 μg of streptomycin/ml. MT-3 cells were cultured in a humidified atmosphere of 90% air and 10% carbon dioxide at 37° C. Media were routinely changed every 3 days.
For experimental use 5×10^6 to 10^7 tumor cells/mouse from the in vitro passage were transplanted s.c. into the flank of each of 10 mice/group at day 0.
At palpable tumor size (30-100 mm^3) treatment was started. The application volume was 0.2 ml/20 g mouse body weight. The test compounds, the vehicle controls and the reference compounds were all given intravenously (i.v.).
Tumor growth inhibition was used as therapeutic parameter. Additionally, body weight change was determined as signs for toxicity (particularly, potential hematological or gastrointestinal side effects). […]

[6] = Table 13, ovcar-3 model, 8 mg/kg/inj. i.v., treatment d 5
[7] = Table 14, MT3-ADR model, 8 mg/kg/inj. i.v., treatment d 10

COc1cccc2c1C(=O)c1c(O)c3c(c(O)c1C2=O)C[C@@](O)(C(=O)CO)C[C@@H]3O[C@H]1C[C@H](N)[C@H](O)[C@H](C)O1 [Doxorubicin]
RTV T/C (%) Optimum [1]: 58.4%
RTV T/C (%) Optimum (at day) [1]: (29) day
Tumor growth RTV d 31 [1]: 15.3 +/− 5.9*
RTV T/C (%) Optimum [2]: 37.1%
RTV T/C (%) Optimum (at day) [2]: (19) day
Tumor growth RTV d 39 [2]: 9.86 +/− 7.98
BWC (%) (d 10/d 28) ([3]; Table 11, MT-3 model, 8 mg/kg/inj. i.v., treatment d 10): 2%
BWC [%] (at day) ([3]; Table 12, MT-3 model, 8 mg/kg/inj. i.v., treatment d 7): (19) day
BWC [%] ([3]; Table 12, MT-3 model, 8 mg/kg/inj. i.v., treatment d 7, maximum body weight loss): −2%
BWC [%] (at day) [3, 6]: (7) day
Toxic deaths [3, 6]: 0
BWC [%] ([3]; Table 13, ovcar-3 model, 8 mg/kg/inj. i.v., treatment d 5, maximum body weight loss): −4%
BWC [%] (at day) [3, 7]: (25) day
Toxic deaths [3, 7]: 0
BWC [%] ([3]; Table 14, MT3-ADR model, 8 mg/kg/inj. i.v., treatment d 10, maximum body weight loss): −8%
BWC (%) (d 7/d 20) ([3]; Table 15, MT-3 model, 8 mg/kg/inj. i.v., treatment d 7): −6%
BWC (%): day of maximum body weight loss ([3]; mouse, in vivo, iv, 8 mg/kg): (d 24)
BWC [%] ([3]; mouse, in vivo, iv, 8 mg/kg): −8%
T/C (%) (TV) at the end ([4]; Table 10, treatment d 7, 14): 1.16 +/− 0.35%
T/C (%) Optimum ([4]; Table 10, treatment d 7, 14): 32.2%
T/C (%) Optimum (at day) ([4]; Table 10, treatment d 7, 14): (18) day
Tumor growth RTV d 28 ([4]; Table 10, treatment d 7, 14): 10.8 +/− 3.7
T/C (%) Optimum ([4]; Table 11, treatment d 10): 30%
T/C (%) Optimum (at day) ([4]; Table 11, treatment d 10): (21) day
Tumor growth RTV d 28 ([4]; Table 11, treatment d 10): 4.3 +/− 3.4
RTV T/C (%) Optimum ([4]; Table 12, treatment d 7): 39.2%
RTV T/C (%) Optimum (at day) ([4]; Table 12, treatment d 7): (29) day
Tumor growth RTV d 33 ([4]; Table 12, treatment d 7): 5.59 +/− 0.78*
T/C (%) Optimum ([4]; Table 15, treatment d 7): 37.8%
T/C (%) Optimum (at day) ([4]; Table 15, treatment d 7): (13) day
Tumor growth RTV d 20 ([4]; Table 15, treatment d 7): 8.1 +/− 2.1*

COc1cccc2c1C(=O)c1c(O)c3c(c(O)c1C2=O)C[C@@](O)(C(=O)CO)C[C@@H]3O[C@H]1C[C@H](N)[C@@H](O)[C@H](C)O1 [Epirubicin]
sensibility of the MT-3 subtype towards anthracycline therapy [5]: no sensibility towards anthracycline therapy

CC(=O)[C@]1(O)Cc2c(O)c3c(c(O)c2[C@@H](O[C@H]2C[C@H](N)[C@H](O)[C@H](C)O2)C1)C(=O)c1ccccc1C3=O [Idarubicin]
sensibility of the MT-3 subtype towards anthracycline therapy [5]: no sensibility towards anthracycline therapy
